Source: ChEMBL document CHEMBL6092222 (J Med Chem, 2024)
Values after ≈ are worked out from the molar mass of the structure shown.

How the values were obtained:
[1] = physchem; details: aqueous buffer, pH 1
Description: Solubility of compound in aqueous buffer at pH 1 at 25 degreeC by reversed phase-HPLC analysis

[2] = physchem; details: aqueous buffer, pH 4
Description: Solubility of compound in aqueous buffer at pH 4 at 25 degreeC by reversed phase-HPLC analysis

[3] = physchem; details: aqueous buffer, pH 6.5
Description: Solubility of compound in aqueous buffer at pH 6.5 at 25 degreeC by reversed phase-HPLC analysis

[4] = Chemical stability of compound in acetate buffer at pH 4 at 37 degreeC assessed as half life measured for 24 hrs by reversed phase-HPLC analysis; type: physicochemical
[5] = Chemical stability of compound in phosphate buffer at pH 6.5 at 37 degreeC assessed as half life measured for 24 hrs by reversed phase-HPLC analysis; type: physicochemical
[6] = Chemical stability of compound in 0.1 M HCl at pH 1 at 37 degreeC assessed as half life measured for 24 hrs by reversed phase-HPLC analysis; type: physicochemical
[7] = Prodrug conversion in Pentagastrine-pretreated Sprague-Dawley rat assessed as Cmax of 6-(cyclopropanecarboxamido)-4-((2-methoxy-3-(2-methyl-2H-tetrazol-5-yl)phenyl)amino)-N-(methyl-d3)nicotinamide metabolite at 10 mg/kg, po measured for 24 hrs by UPLC-MS/MS analysis; type: ADME, organism-based; details: in vivo
[8] = Prodrug conversion in Famotidine-pretreated Sprague-Dawley rat assessed as Cmax of 6-(cyclopropanecarboxamido)-4-((2-methoxy-3-(2-methyl-2H-tetrazol-5-yl)phenyl)amino)-N-(methyl-d3)nicotinamide metabolite at 10 mg/kg, po measured for 24 hrs by UPLC-MS/MS analysis; type: ADME, organism-based; details: in vivo
[9] = Prodrug conversion in Pentagastrine-pretreated Sprague-Dawley rat assessed as Tmax of 6-(cyclopropanecarboxamido)-4-((2-methoxy-3-(2-methyl-2H-tetrazol-5-yl)phenyl)amino)-N-(methyl-d3)nicotinamide metabolite at 10 mg/kg, po measured for 24 hrs by UPLC-MS/MS analysis; type: ADME, organism-based; details: in vivo
[10] = Prodrug conversion in Famotidine-pretreated Sprague-Dawley rat assessed as Tmax of 6-(cyclopropanecarboxamido)-4-((2-methoxy-3-(2-methyl-2H-tetrazol-5-yl)phenyl)amino)-N-(methyl-d3)nicotinamide metabolite at 10 mg/kg, po measured for 24 hrs by UPLC-MS/MS analysis; type: ADME, organism-based; details: in vivo
[11] = Prodrug conversion in Pentagastrine-pretreated Sprague-Dawley rat assessed as AUC (total) of 6-(cyclopropanecarboxamido)-4-((2-methoxy-3-(2-methyl-2H-tetrazol-5-yl)phenyl)amino)-N-(methyl-d3)nicotinamide metabolite at 10 mg/kg, po measured for 24 hrs by UPLC-MS/MS analysis; type: ADME, organism-based; details: in vivo
[12] = Prodrug conversion in Famotidine-pretreated Sprague-Dawley rat assessed as AUC (total) of 6-(cyclopropanecarboxamido)-4-((2-methoxy-3-(2-methyl-2H-tetrazol-5-yl)phenyl)amino)-N-(methyl-d3)nicotinamide metabolite at 10 mg/kg, po measured for 24 hrs by UPLC-MS/MS analysis; type: ADME, organism-based; details: in vivo
[13] = Lipophilicity, logP of compound by HPLC analysis; type: physicochemical
[14] = Dissociation constant, pKa of compound; type: physicochemical
[15] = Solubility of compound at pH 1 by reversed-phase UPLC analysis; type: physicochemical; details: buffer
[16] = Solubility of compound at pH 2 by reversed-phase UPLC analysis; type: physicochemical; details: buffer
[17] = Solubility of compound at pH 3 by reversed-phase UPLC analysis; type: physicochemical; details: buffer
[18] = Solubility of compound at pH 4 by reversed-phase UPLC analysis; type: physicochemical; details: buffer
[19] = Solubility of compound at pH 5 by reversed-phase UPLC analysis; type: physicochemical; details: buffer
[20] = Solubility of compound at pH 6.5 by reversed-phase UPLC analysis; type: physicochemical; details: buffer
[21] = Solubility of compound at pH 7.4 by reversed-phase UPLC analysis; type: physicochemical; details: buffer
[22] = Solubility of compound in FeSSIF at pH 5 by reversed-phase UPLC analysis; type: physicochemical
[23] = Solubility of compound in FaSSIF at pH 6.5 by reversed-phase UPLC analysis; type: physicochemical
[24] = Apparent permeability across apical to basal side in human Caco-2 cells; type: ADME, cell-based
[25] = Efflux ratio of apparent permeability across basal to apical side over apical to basal side in human Caco-2 cells; type: ADME, cell-based
[26] = Permeability of compound by PAMPA; type: ADME; details: read-out: permeability
[27] = Protein binding in human plasma assessed as free fraction; type: ADME, cell-free
[28] = Protein binding in rat plasma assessed as free fraction; type: ADME, cell-free
[29] = Protein binding in monkey plasma assessed as free fraction; type: ADME, cell-free, Macaca mulatta; details: rhesus monkey
[30] = Inhibition of STAT5 phosphorylation in IFN-gamma-treated human whole blood; type: tissue-based
[31] = Oral bioavailability in mouse; type: ADME, organism-based; details: in vivo
[32] = Oral bioavailability in rat; type: ADME, organism-based; details: in vivo
[33] = Oral bioavailability in monkey; type: ADME, organism-based, Macaca mulatta; details: rhesus monkey, in vivo
[34] = Oral bioavailability in mouse at 50 mg/kg administered as suspension; type: ADME, organism-based; details: in vivo
[35] = Cmax in Sprague-Dawley rat at 10 mg/kg, po measured for 24 hrs by UPLC-MS/MS analysis; type: ADME, organism-based; details: in vivo
[36] = Cmax in Pentagastrine-pretreated Sprague-Dawley rat at 10 mg/kg, po measured for 24 hrs by UPLC-MS/MS analysis; type: ADME, organism-based; details: in vivo
[37] = Cmax in Famotidine-pretreated Sprague-Dawley rat at 10 mg/kg, po measured for 24 hrs by UPLC-MS/MS analysis; type: ADME, organism-based; details: in vivo
[38] = Tmax in Sprague-Dawley rat at 10 mg/kg, po measured for 24 hrs by UPLC-MS/MS analysis; type: ADME, organism-based; details: in vivo
[39] = Tmax in Pentagastrine-pretreated Sprague-Dawley rat at 10 mg/kg, po measured for 24 hrs by UPLC-MS/MS analysis; type: ADME, organism-based; details: in vivo
[40] = Tmax in Famotidine-pretreated Sprague-Dawley rat at 10 mg/kg, po measured for 24 hrs by UPLC-MS/MS analysis; type: ADME, organism-based; details: in vivo
[41] = AUC (total) in Sprague-Dawley rat at 10 mg/kg, po measured for 24 hrs by UPLC-MS/MS analysis; type: ADME, organism-based; details: in vivo
[42] = AUC (total) in Pentagastrine-pretreated Sprague-Dawley rat at 10 mg/kg, po measured for 24 hrs by UPLC-MS/MS analysis; type: ADME, organism-based; details: in vivo
[43] = AUC (total) in Famotidine-pretreated Sprague-Dawley rat at 10 mg/kg, po measured for 24 hrs by UPLC-MS/MS analysis; type: ADME, organism-based; details: in vivo
[44] = Oral bioavailability in Sprague-Dawley rat at 10 mg/kg measured for 24 hrs by UPLC-MS/MS analysis; type: ADME, organism-based; details: in vivo
[45] = Oral bioavailability in Pentagastrine-pretreated Sprague-Dawley rat at 10 mg/kg measured for 24 hrs by UPLC-MS/MS analysis; type: ADME, organism-based; details: in vivo
[46] = Oral bioavailability in Famotidine-pretreated Sprague-Dawley rat at 10 mg/kg measured for 24 hrs by UPLC-MS/MS analysis; type: ADME, organism-based; details: in vivo

NCCCC[C@H](N)C(=O)O.[2H]C([2H])([2H])NC(=O)c1cn(COP(=O)(O)O)/c(=N/C(=O)C2CC2)cc1Nc1cccc(-c2nnn(C)n2)c1OC
solubility [1]: 4 µg/mL | solubility [2]: 9 µg/mL | solubility [3]: 308 µg/mL

NC(CO)(CO)CO.[2H]C([2H])([2H])NC(=O)c1cn(COP(=O)(O)O)/c(=N/C(=O)C2CC2)cc1Nc1cccc(-c2nnn(C)n2)c1OC
solubility [1]: 1 µg/mL | solubility [2]: 2 µg/mL | solubility [3]: 141 µg/mL

[2H]C([2H])([2H])N(COP(=O)([O-])[O-])C(=O)c1cnc(NC(=O)C2CC2)cc1Nc1cccc(-c2nnn(C)n2)c1OC.[Na+].[Na+]
half-life [4]: 0.0292 days | half-life [5]: 2.99 days | solubility [3]: 2500 µg/mL

[2H]C([2H])([2H])NC(=O)c1cn(COC(=O)c2ccc(COP(=O)(O)O)cc2)/c(=N/C(=O)C2CC2)cc1Nc1cccc(-c2nnn(C)n2)c1OC
half-life [6]: 13.9 days | half-life [4]: 13.9 days | half-life [5]: 5.42 days | solubility [1]: 1 µg/mL (≈ 1.49 µM) | solubility [3]: 1 µg/mL (≈ 1.49 µM)

[2H]C([2H])([2H])NC(=O)c1cn(COC(=O)CC(C)(C)c2c(C)cc(C)cc2OP(=O)(O)O)/c(=N/C(=O)C2CC2)cc1Nc1cccc(-c2nnn(C)n2)c1OC
half-life [6]: 2.67 days | half-life [4]: 11.4 days | half-life [5]: 0.321 days | solubility [1]: 22 µg/mL (≈ 29.7 µM) | solubility [2]: 44 µg/mL (≈ 59.5 µM)

[2H]C([2H])([2H])NC(=O)c1cn(COP(=O)([O-])[O-])/c(=N/C(=O)C2CC2)cc1Nc1cccc(-c2nnn(C)n2)c1OC.[Na+].[Na+]
half-life [6]: > 20.8 days | half-life [4]: 15.7 days | half-life [5]: 7.38 days | Cmax [7]: 11.6 µM | Cmax [8]: 8.1 µM | Tmax [9]: 2.1 h | Tmax [10]: 2.5 h | AUC [11]: 79 µM·h | AUC [12]: 58 µM·h | solubility [1]: 10 µg/mL | solubility [2]: 1 µg/mL | solubility [3]: 1470 µg/mL

CNCC(=O)OCc1cccnc1N(C)C(=O)OCn1cc(C(=O)NC)c(Nc2cccc(-c3nnn(C)n3)c2OC)c/c1=N\C(=O)C1CC1.Cl
half-life [6]: 13.9 days | half-life [4]: 3 days | half-life [5]: 0.238 days | solubility [1]: 650 µg/mL | solubility [2]: 580 µg/mL

[2H]C([2H])([2H])NC(=O)c1cnc(NC(=O)C2CC2)cc1Nc1cccc(-c2nnn(C)n2)c1OC
logP [13]: 2.7 | pKa [14]: 4.8 | solubility [15]: 2020 µg/mL (≈ 4750 µM) | solubility [16]: 1680 µg/mL (≈ 3950 µM) | solubility [17]: 17 µg/mL (≈ 40 µM) | solubility [18]: 5 µg/mL (≈ 11.8 µM) | solubility [19]: < 1 µg/mL | solubility [20]: < 1 µg/mL | solubility [21]: < 1 µg/mL | solubility [22]: 57 µg/mL (≈ 134 µM) | solubility [23]: 8 µg/mL (≈ 18.8 µM) | Papp A→B [24]: 6.7 ×10⁻⁶ cm/s | efflux ratio [25]: 8.2 | Papp [26]: ~60 ×10⁻⁶ cm/s | fraction unbound [27]: 0.1 | fraction unbound [28]: 0.07 | fraction unbound [29]: 0.08 | IC50 [30]: 23 nM | bioavailability [31]: 100% | bioavailability [32]: 50% | bioavailability [33]: 100% | bioavailability [34]: 63% | Cmax [35]: 4.8 µM | Cmax [36]: 8.6 µM | Cmax [37]: 770 nM | Tmax [38]: 1.1 h | Tmax [39]: 0.9 h | Tmax [40]: 2.5 h | AUC at 24 h [41]: 18.4 µM·h | AUC at 24 h [42]: 46 µM·h | AUC at 24 h [43]: 7.8 µM·h | bioavailability [44]: 36% | bioavailability [45]: 91% | bioavailability [46]: 15.4% | solubility [1]: 2020 µg/mL (≈ 4750 µM) | solubility [2]: 5 µg/mL (≈ 11.8 µM) | solubility [3]: 1 µg/mL (≈ 2.35 µM)

Cl.[2H]C([2H])([2H])NC(=O)c1cnc(NC(=O)C2CC2)cc1Nc1cccc(-c2nnn(C)n2)c1OC
Cmax [36]: 7.1 µM | Cmax [37]: 800 nM | Tmax [39]: 5.5 h | Tmax [40]: 4 h | AUC at 24 h [42]: 53.4 µM·h | AUC at 24 h [43]: 5.5 µM·h

[2H]C([2H])([2H])NC(=O)c1cn(COC(=O)c2ccc(OP(=O)(O)O)c(OC)c2)/c(=N/C(=O)C2CC2)cc1Nc1cccc(-c2nnn(C)n2)c1OC
half-life [6]: > 20.8 days | half-life [4]: 8.96 days | half-life [5]: 3.5 days | solubility [1]: < 1 µg/mL | solubility [2]: 58 µg/mL (≈ 84.6 µM) | solubility [3]: 1000 µg/mL (≈ 1460 µM)
